SMILES strings stand for the structures.

What all share (settings): 24 h
Assay [1] deals with U2OS. In words: nuclei count in HPG assay relative to DMSO (% of DMSO); higher = more viable cells. The protocol: (§1)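 Validation screen in U2OS cells: hits tested at 1, 3 and 10 uM for 24 h in duplicate plates. Translation was read by OPP incorporation (1 h pulse) and HPG incorporation (30 min in methionine-free medium), quantified by high-throughput microscopy alongside nuclei counts. All values are normalised to DMSO (= 100).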

Assay [2] deals with U2OS. In words: mean OPP incorporation (global translation) relative to DMSO (% of DMSO); higher = more protein synthesis. The protocol: as §1
Assay [3] deals with U2OS. In words: nuclei count in OPP assay relative to DMSO (% of DMSO); higher = more viable cells. The protocol:
as §1

For assay [4], the system named is U2OS. In words: mean HPG incorporation (global translation) relative to DMSO (% of DMSO); higher = more protein synthesis. The protocol:
as §1

In the case of `Cc1c(CN2CCN(C(=O)[C@H](C)O)CC2)sc2c(N3CCOCC3)nc(-c3cnc(N)nc3)nc12` [Apitolisib (GDC-0980, RG7422)], the entries for the “nuclei count in HPG assay” value in the assay with U2OS [1] (1 µM), in the assay on U2OS [1] (3 µM) and in the assay on U2OS [1] (10 µM) were 80.7, 76.3 and 75, respectively. The figures for the “mean OPP incorporation” value with U2OS [2] (1 µM), in the assay on U2OS [2] (3 µM) and in the assay with U2OS [2] (10 µM) were 60.3, 35.8 and 35.4, respectively. Further, the figures for the “nuclei count in OPP assay” value in the assay on U2OS [3] (1 µM), with U2OS [3] (3 µM) and in the assay with U2OS [3] (10 µM) were 72.8, 76.9 and 73.3, respectively. Further, the “mean HPG incorporation” value with U2OS [4] (1 µM) is 44.1; with U2OS [4] (3 µM), 40.7; in the assay with U2OS [4] (10 µM), 41.4.

The record behind these values is the supplement of paper PMC8183993.
